Assays:
Format in all cases: in vivo
Boophilus microplus = Boophilus microplus injection test; conditions: application rate 20 μg/animal; injection into abdomen; assessed after 7 days
Experimental: Boophilus microplus—Injection Test
(§1) Solvent: dimethyl sulphoxide
To produce an appropriate active ingredient formulation, 10 mg of active ingredient are mixed with 0.5 ml of solvent and the concentrate is diluted with solvent to the desired concentration.
1 μl of the active ingredient solution is injected into the abdomen of 5 engorged adult female cattle ticks (Boophilus microplus). The animals are transferred into dishes and kept in a climate-controlled room.
Efficacy is assessed after 7 days by laying of fertile eggs. Eggs which are not visibly fertile are stored in a climate-controlled cabinet until the larvae hatch after about 42 days. An efficacy of 100% means that none of the ticks has laid any fertile eggs; 0% means that all the eggs are fertile.

Ctenocephalides felis = Ctenocephalides felis oral test; conditions: application rate 100 ppm in citrated cattle blood; after 2 days
Experimental: Ctenocephalides felis—Oral Test
as §1
For the purpose of producing an appropriate active ingredient formulation, 10 mg of active ingredient are mixed with 0.5 ml of dimethyl sulphoxide. Dilution with citrated cattle blood gives the desired concentration.
About 20 unfed adult cat fleas (Ctenocephalides felis) are placed into a chamber which is closed at the top and bottom with gauze. A metal cylinder whose bottom end is closed with parafilm is placed onto the chamber. The cylinder contains the blood/active ingredient preparation, which can be imbibed by the fleas through the parafilm membrane.
After 2 days, the kill in % is determined. 100% means that all of the fleas have been killed; 0% means that none of the fleas have been killed.

Phaedon cochleariae = Phaedon cochleariae spray test; conditions: application rate 100 g/ha; larvae; after 7 days
Experimental: Phaedon cochleariae—Spray Test
(§2) To produce an appropriate active ingredient formulation, 1 part by weight of active ingredient is dissolved using the specified parts by weight of solvent and made up with water containing an emulsifier concentration of 1000 ppm until the desired concentration is attained. To produce further test concentrations, the preparation is diluted with emulsifier-containing water.
Discs of Chinese cabbage leaves (Brassica pekinensis) are sprayed with an active ingredient formulation of the desired concentration and, after drying, populated with larvae of the mustard beetle (Phaedon cochleariae).
After 7 days, efficacy in % is determined. 100% means that all the beetle larvae have been killed; 0% means that no beetle larvae have been killed.

Spodoptera frugiperda = Spodoptera frugiperda spray test; conditions: caterpillars, after 7 days
Experimental: Spodoptera frugiperda—Spray Test
as §2
Leaf discs of maize (Zea mays) are sprayed with an active ingredient formulation of the desired concentration and, after drying, populated with caterpillars of the armyworm (Spodoptera frugiperda).
After 7 days, efficacy in % is determined. 100% means that all the caterpillars have been killed; 0% means that no caterpillars have been killed.

Lucilia cuprina = Lucilia cuprina test; conditions: application rate 100 ppm; L1 larvae; after 2 days
Experimental: as §1
To produce an appropriate active ingredient formulation, 10 mg of active ingredient are mixed with 0.5 ml of dimethyl sulphoxide, and the concentrate is diluted with water to the desired concentration.
About 20 L1 larvae of the Australian sheep blowfly (Lucilia cuprina) are transferred into a test vessel containing minced horsemeat and the active ingredient preparation of the desired concentration.
After 2 days, the kill in % is determined. 100% means that all the larvae have been killed and 0% means that none of the larvae have been killed.

Rhipicephalus sanguineus = Rhipicephalus sanguineus in vitro contact test with adult brown dog ticks; conditions: after 48 h, ticks dead or moribund
Experimental: Rhipicephalus sanguineus—In Vitro Contact Tests with Adult Brown Dog Ticks
For the coating of the test tubes, 9 mg of active ingredient are first dissolved in 1 ml of acetone p.a. and then diluted to the desired concentration with acetone p.a. 250 μl of the solution are distributed homogeneously on the inner walls and base of a 25 ml test tube by turning and rocking on an orbital shaker (rocking rotation at 30 rpm for 2 h). With 900 ppm active ingredient solution and internal surface 44.7 cm^2, given homogeneous distribution, an area-based dose of 5 μg/cm^2 is achieved.
After the solvent has evaporated off, the tubes are populated with 5-10 adult dog ticks (Rhipicephalus sanguineus), sealed with a perforated plastic lid and incubated in a horizontal position in the dark at room temperature and ambient humidity. After 48 h, efficacy is determined. To this end, the ticks are knocked to the floor of the tube and incubated on a hotplate at 45-50° C. for not more than 5 min. Ticks which remain motionless on the floor or move in such an uncoordinated manner that they are unable to deliberately avoid the heat by climbing upwards are considered to be dead or moribund.
An efficacy of 100% means that all the ticks were dead or moribund. 0% efficacy means that none of the ticks had been harmed.

[1] = application rate 5 μg/cm^2 (500 g/ha)

| SMILES | efficacy (laying of fertile eggs) (Boophilus microplus) [%] | efficacy (kill in %) (Ctenocephalides felis) [%] | efficacy (kill in %) (Lucilia cuprina) [%] | further results |
| --- | --- | --- | --- | --- |
| Cn1nc(C(F)(F)C(F)(F)F)c(C(F)(F)F)c1-n1cc(-c2ccc(F)c(NC(=O)C(c3ccccc3)C3CCCC3)c2)cn1 (racemic) [Example 1-109] | 80 | – | – | – |
| CC(Oc1ccccc1)C(=O)Nc1cc(-c2cnn(-c3c(C(F)(F)F)c(C(F)(F)C(F)(F)F)nn3C)c2)ccc1F (racemic) [Example 1-123] | 100 | 90 | – | – |
| CCC(C(=O)Nc1cc(-c2cnn(-c3c(C(F)(F)F)c(C(F)(F)C(F)(F)F)nn3C)c2)ccc1F)c1ccccc1 (racemic) [Example 1-124] | 100 | – | – | – |
| Cn1nc(C(F)(F)C(F)(F)F)c(C(F)(F)F)c1-n1cc(-c2cccc(NC(=O)c3ncccc3Cl)c2)cn1 [Example 1-005] | 100 | 100 | 100 | efficacy (Phaedon cochleariae): 100%; efficacy (Spodoptera frugiperda; application rate 100 g/ha): 100% |
| CCC(=O)Nc1cccc(-c2cnn(-c3c(C(F)(F)F)c(C(F)(F)C(F)(F)F)nn3C)c2)c1 [Example 1-008] | 100 | 100 | 100 | efficacy (Rhipicephalus sanguineus; [1]): 100% |
| Cn1nc(C(F)(F)C(F)(F)F)c(C(F)(F)F)c1-n1cc(-c2cccc(NC(=O)c3ncccc3Cl)c2F)cn1 [Example 1-020] | 100 | 95 | 90 | – |
| Cn1nc(C(F)(F)C(F)(F)F)c(C(F)(F)F)c1-n1cc(-c2ccc(Cl)c(NC(=O)c3ncccc3Cl)c2)cn1 [Example 1-021] | – | 80 | – | – |
| Cn1nc(C(F)(F)C(F)(F)F)c(C(F)(F)F)c1-n1cc(-c2cccc(NC(=O)C3(Cl)CC3)c2)cn1 [Example 1-030] | 100 | 100 | 100 | efficacy (Rhipicephalus sanguineus; [1]): 80%; efficacy (Spodoptera frugiperda; application rate 500 g/ha): 100% |
| Cn1nc(C(F)(F)C(F)(F)F)c(C(F)(F)F)c1-n1cc(-c2ccc(F)c(NC(=O)c3ccc(F)c(C(F)(F)F)c3)c2)cn1 [Example 1-050] | 100 | – | 100 | efficacy (Phaedon cochleariae): 100% |
| Cn1nc(C(F)(F)C(F)(F)F)c(C(F)(F)F)c1-n1cc(-c2ccc(F)c(NC(=O)c3cccc(C(F)(F)F)c3)c2)cn1 [Example 1-057] | 100 | 95 | 100 | efficacy (Spodoptera frugiperda; application rate 100 g/ha): 83% |
| Cc1c(C(=O)Nc2cc(-c3cnn(-c4c(C(F)(F)F)c(C(F)(F)C(F)(F)F)nn4C)c3)ccc2F)oc2ccccc12 [Example 1-059] | 100 | – | – | – |
| COCCC(=O)Nc1cc(-c2cnn(-c3c(C(F)(F)F)c(C(F)(F)C(F)(F)F)nn3C)c2)ccc1F [Example 1-061] | 100 | 100 | – | efficacy (Rhipicephalus sanguineus; [1]): 80% |
| Cc1cc(C(F)F)n2nc(C(=O)Nc3cc(-c4cnn(-c5c(C(F)(F)F)c(C(F)(F)C(F)(F)F)nn5C)c4)ccc3F)nc2n1 [Example 1-062] | 100 | 100 | 100 | – |
| Cn1nc(C(F)(F)C(F)(F)F)c(C(F)(F)F)c1-n1cc(-c2ccc(F)c(NC(=O)c3cccc(F)c3F)c2)cn1 [Example 1-070] | 100 | 100 | 100 | efficacy (Rhipicephalus sanguineus; [1]): 80% |
| Cn1nc(C(F)(F)C(F)(F)F)c(C(F)(F)F)c1-n1cc(-c2ccc(F)c(NC(=O)c3ccccc3OC(F)(F)F)c2)cn1 [Example 1-074] | 90 | – | – | – |
| Cn1nc(C(F)(F)C(F)(F)F)c(C(F)(F)F)c1-n1cc(-c2ccc(F)c(NC(=O)CC(C)(C)C)c2)cn1 [Example 1-079] | 100 | 95 | 100 | – |
| CCOCC(C)(C)C(=O)Nc1cc(-c2cnn(-c3c(C(F)(F)F)c(C(F)(F)C(F)(F)F)nn3C)c2)ccc1F [Example 1-082] | 100 | 90 | – | – |
| Cc1ccc(C(=O)Nc2cc(-c3cnn(-c4c(C(F)(F)F)c(C(F)(F)C(F)(F)F)nn4C)c3)ccc2F)cc1C [Example 1-090] | – | – | – | efficacy (Phaedon cochleariae): 100%; efficacy (Rhipicephalus sanguineus; [1]): 100% |
| Cn1nc(C(F)(F)C(F)(F)F)c(C(F)(F)F)c1-n1cc(-c2ccc(F)c(NC(=O)CSc3ccccc3)c2)cn1 [Example 1-107] | 100 | – | – | – |
| Cc1ccc(C2(C(=O)Nc3cc(-c4cnn(-c5c(C(F)(F)F)c(C(F)(F)C(F)(F)F)nn5C)c4)ccc3F)CCCCC2)cc1 [Example 1-111] | 80 | – | – | – |
| Cc1cn(CC(=O)Nc2cc(-c3cnn(-c4c(C(F)(F)F)c(C(F)(F)C(F)(F)F)nn4C)c3)ccc2F)nc1C(F)(F)F [Example 1-112] | 95 | – | – | – |
| Cn1nc(C(F)(F)C(F)(F)F)c(C(F)(F)F)c1-n1cc(-c2ccc(F)c(NC(=O)COCc3ccccc3)c2)cn1 [Example 1-114] | 100 | – | – | – |
| Cn1nc(C(F)(F)C(F)(F)F)c(C(F)(F)F)c1-n1cc(-c2ccc(F)c(NC(=O)C3(c4ccc(Cl)cc4)CCC3)c2)cn1 [Example 1-115] | 100 | 90 | 80 | – |
| Cn1nc(C(F)(F)C(F)(F)F)c(C(F)(F)F)c1-n1cc(-c2ccc(F)c(NC(=O)Cc3cccs3)c2)cn1 [Example 1-117] | 100 | 100 | 100 | efficacy (Rhipicephalus sanguineus; [1]): 100%; efficacy (Spodoptera frugiperda; application rate 100 g/ha): 100% |
| Cn1nc(C(F)(F)C(F)(F)F)c(C(F)(F)F)c1-n1cc(-c2ccc(F)c(NC(=O)CCc3ccccc3)c2)cn1 [Example 1-125] | 100 | – | – | – |
| Cn1nc(C(F)(F)C(F)(F)F)c(C(F)(F)F)c1-n1cc(-c2cnc(Cl)c(NC(=O)c3ncccc3Cl)c2)cn1 [Example 2-002] | 100 | – | – | – |
| COc1cc(C(=O)Nc2cc(-c3cnn(-c4c(C(F)(F)F)c(C(F)(F)C(F)(F)F)nn4C)c3)cnc2Cl)ccc1F [Example 2-007] | 100 | 100 | 100 | efficacy (Phaedon cochleariae): 100%; efficacy (Rhipicephalus sanguineus; application rate 1 μg/cm^2 (100 g/ha)): 80% |

— patent publication US10273226B2, “Pyrazolyl-heteroarylamides as pesticides” (Bayer Animal Health GmbH, priority 2014, dated 2019)
